Patent US6503948B2, “Method for prevention or treatment of acute allograft rejection and a pharmaceutical composition therefor” (Southern Research Institute, priority 1998, dated 2003)
“And” between values parts separate entries of the source, which are not always exact repeats. Equal values may be shown once.

Test system: acute allograft rejection (heart graft, Fischer donor to Long-Evans recipient)
Experiment: Intra abdominal heterotopic cardiografting in rats with donor pretreatment; graft survival
Assay type: in vivo, rat
Description: 1-(2-chloroethyl)-1-nitroso-3-(3-methylcyclohexyl)urea was administered 5 mg per donor rat at a dosage of 20 mg/kg 24 hours prior to removal of heart tissue for transplantation. Administration of the compound above results in survival of 25 days, 27 days, 30 days, 32 days, and greater than 60 days.
According to this experiment, the donor rats were Fischer strain and the recipients were Long-Evans strains. These strains are mismatched at the major histocompatibility antigenic site (Ag locus). In the experiment, intra abdominal heterotopic cardiografting was performed using a modification of techniques described by Ono and Lindsey, Improved Technique of Heart Transplantation In Rats, Journal of Thoracic and Cardiovascular Surgery, 57: 225 (1969) and Lee et al., Heterotopic Heart and Lung Transplantation in the Rat, American Journal of Pathology, 59: 279 (1970), the entire contents of the disclosures of both of which are hereby incorporated by reference.
According to this experiment, a total dose of 20 milligrams per kilogram of the above compound was administered to donor rats 24 hours prior to transplantation. According to this dosage regimen, survival was prolonged from 10 to 25-60 days. Survival for 60 days indicated permanent survival, in other words, while typically surviving 10 days, the rats lived for 25-60 days, with the rats living to 60 days having a permanent survival.

## CC1CCCC(NC(=O)N(CCCl)N=O)C1 (stereo not shown) [1-(2-chloroethyl)-1-nitroso-3-(3-methylcyclohexyl)urea]
5 mg per donor rat, 20 mg/kg, given to donor 24 hours prior to removal of heart tissue, Fischer donors, Long-Evans recipients, typical survival 10 days
  survival: 25 days and 27 days and 30 days and 32 days and greater than 60 days and 25-60 days
Donors treated with 20 mg/kg compound combined with 100 mg/kg methotrexate
  median survival (considering dying rats only) versus the compound alone: increase in median survival
Rats surviving for 60 days, sacrificed after two years, donor dose 20 mg/kg
  microscopic evaluation of hearts: normal hearts
Recipients also treated with a single small dose of Cyclosporine A
  survival: increase in survival
